The values below come from patent publication US9550796B2, “Pyrrolopyrrolone derivatives and their use as BET inhibitors” (NOVARTIS AG, priority 2013, dated 2017).

One assay deals with MV-4-11. Put plainly: Cell growth inhibition assay (CellTiter-Glo), MV-4-11. Format: cell-based, human. The note with it: MV-4-11 cells, 4 days; for GI50: Homo sapiens, MV4-11, 96 h, half-maximal growth inhibition; for MV-4-11 TGI: total growth inhibition. The method, boiled down:
(§1)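 A separate day 0 plate allows cytotoxic and cytostatic effects to be distinguished: viable-cell ATP after 4-day compound treatment (top 10 μM, 3-fold steps) is expressed relative to it. DMSO-only wells count as 100% and medium-only wells as −100%.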
(Cellular ATP, detected with luciferase, serves as a proxy for viable cell number.)

Another assay concerns the target BRD2 (Homo sapiens (Human), UniProt P25440). Put plainly: TR-FRET in-vitro binding assay for BRD2. The note with it: 45 nM His-Brd2(60-472), acetyl-histone H4 (AcK 5, 8, 12, 16) peptide. The method, boiled down:
(§2)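 Binding is detected by TR-FRET following incubation for 35 minutes at 30° C.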
On the technique in general: TR-FRET usually uses a lanthanide donor and a delayed reading to cut background.

For another assay, the system named is K-562. Put plainly: Cell growth inhibition assay (CellTiter-Glo), K-562. Format: cell-based, human. The note with it: K-562 cells, 4 days; for GI50: Homo sapiens, K562, 96 h, half-maximal growth inhibition; for K-562 TGI: total growth inhibition. An outline of the steps: as §1
A further assay deals with BRD4 (Homo sapiens (Human), UniProt O60885). Put plainly: TR-FRET in-vitro binding assay for BRD4. The note with it: 45 nM His-Brd4(44-477), acetyl-histone H4 (AcK 5, 8, 12, 16) peptide. An outline of the steps:
as §2

Another assay deals with BRD3 (Homo sapiens (Human), UniProt Q15059). Kind of assay: TR-FRET in-vitro binding assay for BRD3. The note with it: 45 nM His-Brd3(20-477), acetyl-histone H4 (AcK 5, 8, 12, 16) peptide. An outline of the steps: as §2
Sequence of BRD3 (Q15059 20-477): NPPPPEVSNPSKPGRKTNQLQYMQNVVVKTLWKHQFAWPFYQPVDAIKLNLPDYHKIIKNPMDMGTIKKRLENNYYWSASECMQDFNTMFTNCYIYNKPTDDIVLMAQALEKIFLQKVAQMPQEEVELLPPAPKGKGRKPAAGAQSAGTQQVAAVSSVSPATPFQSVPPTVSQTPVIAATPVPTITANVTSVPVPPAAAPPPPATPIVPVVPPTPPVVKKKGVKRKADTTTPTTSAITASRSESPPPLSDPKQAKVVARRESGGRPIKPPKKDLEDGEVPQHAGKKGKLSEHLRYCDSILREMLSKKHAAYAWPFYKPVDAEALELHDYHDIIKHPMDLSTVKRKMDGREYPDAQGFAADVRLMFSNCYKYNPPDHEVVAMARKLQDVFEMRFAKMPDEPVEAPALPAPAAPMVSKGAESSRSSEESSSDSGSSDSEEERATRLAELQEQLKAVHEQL
For a further assay, the system named is THP-1. Put plainly: Cell growth inhibition assay (CellTiter-Glo), THP-1. Format: cell-based, human. Conditions: THP-1 cells, 4 days; for GI50: Homo sapiens, 96 h, half-maximal growth inhibition; for THP-1 TGI: total growth inhibition. The method, boiled down: as §1
The target in a further assay is CREBBP (Homo sapiens (Human), UniProt Q92793). Put plainly: AlphaScreen in-vitro binding assay for CREBBP. Conditions: 324 nM His-CREBBP (1081-1197), acetyl-histone H4 (AcK 5, 8, 12) peptide. The method, boiled down: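 IC50 values were derived by non-linear regression of percent inhibition across 8 compound concentrations. Protein was His-tagged CREBBP bromodomain (1081-1197), peptide acetyl-histone H4 (AcK 5, 8, 12), in HEPES pH 7.5 buffer. Read-out was AlphaScreen with Ni-chelate acceptor and streptavidin donor beads, 35 min at 30° C then 60 min at RT.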
Sequence of CREBBP (Q92793 1081-1197): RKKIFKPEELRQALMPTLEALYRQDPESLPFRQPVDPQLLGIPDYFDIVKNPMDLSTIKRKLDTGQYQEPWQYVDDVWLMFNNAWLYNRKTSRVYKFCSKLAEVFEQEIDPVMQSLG

Molecules are shown by their SMILES.

Sequence of BRD2 (P25440 60-472): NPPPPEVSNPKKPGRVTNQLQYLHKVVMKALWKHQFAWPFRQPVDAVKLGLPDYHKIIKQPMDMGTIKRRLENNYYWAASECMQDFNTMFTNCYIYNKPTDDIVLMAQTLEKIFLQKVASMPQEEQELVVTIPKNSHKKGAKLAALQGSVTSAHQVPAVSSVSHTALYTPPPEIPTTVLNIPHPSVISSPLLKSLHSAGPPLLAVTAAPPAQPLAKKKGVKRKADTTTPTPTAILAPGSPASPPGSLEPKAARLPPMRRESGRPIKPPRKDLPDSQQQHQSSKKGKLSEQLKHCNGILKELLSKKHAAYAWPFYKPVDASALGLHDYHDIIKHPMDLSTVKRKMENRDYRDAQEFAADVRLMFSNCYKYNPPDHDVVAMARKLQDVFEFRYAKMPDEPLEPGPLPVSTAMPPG

On to `COCCn1cc(C)c2c1C(c1ccc(Cl)cc1)N(c1cc(C)c3nnc(C)n3c1)C2=O` (stereo not shown) [Example 13, 6-(4-chlorophenyl)-5-(3,8-dimethyl-[1,2,4]triazolo[4,3-a]pyridin-6-yl)-1-(2-methoxyethyl)-3-methyl-5,6-dihydropyrrolo[3,4-b]pyrrol-4(1H)-one], for which the GI50 with MV-4-11 is 12.7 nM; with K-562 it was 73.6 nM; in the assay with THP-1 it was 17.6 nM. In the assay on MV-4-11, the “MV-4-11 TGI” value came to 24.85 nM. For the same compound, the IC50 was found to be 71 nM on BRD2, 62 nM on BRD4, 67 nM on BRD3 and 13700 nM on CREBBP. For the same compound, the “K-562 TGI” value in the assay on K-562 was over 10000 nM. Further, the “THP-1 TGI” value in the assay on THP-1 was found to be 38.9 nM.
As to `Cc1cc(N2C(=O)c3c(C(=O)N(C)C)cn(C)c3C2c2ccc(Cl)cc2)nc2c1nnn2C` (stereo not shown) [Example 94, 6-(4-chlorophenyl)-5-(3,7-dimethyl-3H-[1,2,3]triazolo[4,5-b]pyridin-5-yl)-N,N,1-trimethyl-4-oxo-1,4,5,6-tetrahydropyrrolo[3,4-b]pyrrole-3-carboxamide], the GI50 with MV-4-11 was 8.19 nM; in the assay on K-562, 34.6 nM; in the assay on THP-1 it was 12.4 nM. Besides, in the assay on MV-4-11, the “MV-4-11 TGI” value turned out to be 21.95 nM. Moreover, the IC50 at BRD2 is 17 nM; at BRD4, 12 nM; at BRD3, 13 nM; at CREBBP it was over 37000 nM. The “K-562 TGI” value with K-562 is over 10000 nM. Further, in the assay on THP-1, the “THP-1 TGI” value was found to be 29.85 nM.
Consider `CNC(=O)c1cn(C)c2c1C(=O)N(c1cc(C)c3nnn(C)c3n1)C2c1ccc(Cl)cc1` (stereo not shown) [Example 93, 6-(4-chlorophenyl)-5-(3,7-dimethyl-3H-[1,2,3]triazolo[4,5-b]pyridin-5-yl)-N,1-dimethyl-4-oxo-1,4,5,6-tetrahydropyrrolo[3,4-b]pyrrole-3-carboxamide], for which the GI50 with MV-4-11 was determined as 2.54 nM; with K-562 it was 27.4 nM; in the assay with THP-1 it was 3.12 nM. Besides, the “MV-4-11 TGI” value with MV-4-11 was 10.49 nM. Moreover, the IC50 at BRD2 was 15 nM; at BRD4, 13 nM; at BRD3, 14 nM; on CREBBP it was over 37000 nM. Besides, the “K-562 TGI” value with K-562 is over 10000 nM. Moreover, the “THP-1 TGI” value with THP-1 turned out to be 11.24 nM.
On to `Cn1cc(N2C(=O)c3cc(-c4cccc(=O)n4C)n(C4CC4)c3C2c2ccc(Cl)cc2)cc(Cl)c1=O` (stereo not shown) [Example 62, 5-(5-chloro-1-methyl-6-oxo-1,6-dihydropyridin-3-yl)-6-(4-chlorophenyl)-1-cyclopropyl-2-(1-methyl-6-oxo-1,6-dihydropyridin-2-yl)-5,6-dihydropyrrolo[3,4-b]pyrrol-4(1H)-one], for which the GI50 is 226 nM in the assay on MV-4-11, 1030 nM in the assay with K-562 and 758 nM with THP-1. Further, the “MV-4-11 TGI” value with MV-4-11 was 329 nM. Further, the IC50 at BRD2 was 140 nM; on BRD4, 170 nM; at BRD3 it was 130 nM; at CREBBP, 270 nM. The “K-562 TGI” value with K-562 is over 10000 nM. Moreover, the “THP-1 TGI” value with THP-1 amounted to 1190 nM.
Consider `Cc1cc(N2C(=O)c3cc(C4=CCOCC4)n(C)c3C2c2ccc(Cl)cc2)cn2c(C)nnc12` (stereo not shown) [Example 31, 6-(4-chlorophenyl)-2-(3,6-dihydro-2H-pyran-4-yl)-5-(3,8-dimethyl-[1,2,4]triazolo[4,3-a]pyridin-6-yl)-1-methyl-5,6-dihydropyrrolo[3,4-b]pyrrol-4(1H)-one], for which the GI50 with MV-4-11 was found to be 13.3 nM; in the assay on K-562, 57.2 nM; in the assay on THP-1, 30.9 nM. Besides, the “MV-4-11 TGI” value with MV-4-11 worked out at 23.7 nM. For the same compound, the concentration for half-maximal inhibition (IC50) is 62 nM on BRD2, 36 nM at BRD4, 47 nM at BRD3 and 3100 nM at CREBBP. The “K-562 TGI” value with K-562 was over 10000 nM. Also, the “THP-1 TGI” value with THP-1 was found to be 52.5 nM.
`Cc1cn(C2CN(C)C2)c2c1C(=O)N(c1cc(C)c3nnn(C)c3n1)C2c1ccc(Cl)cc1` (stereo not shown) [Example 20, 6-(4-chlorophenyl)-5-(3,7-dimethyl-3H-[1,2,3]triazolo[4,5-b]pyridin-5-yl)-3-methyl-1-(1-methylazetidin-3-yl)-5,6-dihydropyrrolo[3,4-b]pyrrol-4(1H)-one]: the values for the GI50 in the assay with MV-4-11, in the assay on K-562 and with THP-1 were 7.89 nM, 63.4 nM and 12.9 nM, respectively. Moreover, the “MV-4-11 TGI” value in the assay on MV-4-11 worked out at 21.25 nM. In addition, the IC50 at BRD2 is 23 nM; at BRD4, 16 nM; on BRD3, 20 nM; on CREBBP it was over 37000 nM. In the assay with K-562, the “K-562 TGI” value is over 10000 nM. Also, the “THP-1 TGI” value with THP-1 amounted to 38 nM.
With `Cc1cc(N2C(=O)c3cc(-c4ccc(=O)n(C)c4)n(C4CC4)c3C2c2ccc(Cl)cc2)cn(C)c1=O` (stereo not shown) [Example 67, 6-(4-chlorophenyl)-1-cyclopropyl-5-(1,5-dimethyl-6-oxo-1,6-dihydropyridin-3-yl)-2-(1-methyl-6-oxo-1,6-dihydropyridin-3-yl)-5,6-dihydropyrrolo[3,4-b]pyrrol-4(1H)-one], the GI50 in the assay with MV-4-11 came to 66.7 nM; in the assay on K-562 it was 404 nM; in the assay with THP-1 it was 143 nM. Also, the “MV-4-11 TGI” value in the assay on MV-4-11 amounted to 118 nM. Also, the IC50 at BRD2 was found to be 42 nM; at BRD4, 88 nM; at BRD3, 85 nM; on CREBBP, 300 nM. In the assay on K-562, the “K-562 TGI” value is over 10000 nM. Besides, in the assay with THP-1, the “THP-1 TGI” value stood at 353 nM.
Take `CNC(=O)n1ccc2c1C(c1ccc(Cl)cc1)N(c1cc(C)c3nnc(C)n3c1)C2=O` (stereo not shown) [Example 23, 6-(4-chlorophenyl)-5-(3,8-dimethyl-[1,2,4]triazolo[4,3-a]pyridin-6-yl)-N-methyl-4-oxo-5,6-dihydropyrrolo[3,4-b]pyrrole-1(4H)-carboxamide]: the GI50 turned out to be 29 nM in the assay on MV-4-11, 206 nM with K-562 and 39.2 nM in the assay on THP-1. Also, the “MV-4-11 TGI” value with MV-4-11 amounted to 54.7 nM. Moreover, the IC50 turned out to be 85 nM on BRD2, 52 nM on BRD4, 39 nM at BRD3 and 4200 nM on CREBBP. Further, the “K-562 TGI” value in the assay on K-562 was over 10000 nM. The “THP-1 TGI” value with THP-1 is 101.7 nM.
Turning to `CCOC(=O)N1CC(n2cc(C)c3c2C(c2ccc(Cl)cc2)N(c2cc(C)c4nnc(C)n4c2)C3=O)C1` (stereo not shown) [Example 8, Ethyl 3-(6-(4-chlorophenyl)-5-(3,8-dimethyl-[1,2,4]triazolo[4,3-a]pyridin-6-yl)-3-methyl-4-oxo-5,6-dihydropyrrolo[3,4-b]pyrrol-1(4H)-yl)azetidine-1-carboxylate], the GI50 in the assay on MV-4-11 amounted to 25.2 nM; in the assay on K-562, 132 nM; in the assay with THP-1 it was 41.6 nM. For the same compound, the “MV-4-11 TGI” value with MV-4-11 amounted to 37.75 nM. Besides, the half-inhibitory concentration (IC50) at BRD2 worked out at 41 nM; on BRD4, 18 nM; on BRD3, 34 nM; on CREBBP it was 5100 nM. The “K-562 TGI” value in the assay with K-562 is over 10000 nM. For the same compound, the “THP-1 TGI” value in the assay on THP-1 worked out at 93.95 nM.
Take `Cn1ccc2c1C(c1ccccc1)N(c1cc(Cl)c(=O)n(C)c1)C2=O` (stereo not shown) [Example 86, 5-(5-chloro-1-methyl-6-oxo-1,6-dihydropyridin-3-yl)-1-methyl-6-phenyl-5,6-dihydropyrrolo[3,4-b]pyrrol-4(1H)-one]: the concentration for 50% growth inhibition (GI50) with MV-4-11 was 338 nM; with K-562, 1100 nM; in the assay with THP-1, 392 nM. Also, in the assay with MV-4-11, the “MV-4-11 TGI” value was 642 nM. The IC50 on BRD2 was determined as 433 nM; on BRD4, 437 nM; at BRD3, 277 nM; on CREBBP, 18400 nM. For the same compound, the “K-562 TGI” value in the assay on K-562 was over 10000 nM. Also, in the assay with THP-1, the “THP-1 TGI” value was 795.5 nM.

The term GI50 denotes the concentration giving 50% growth inhibition. The IC50 is the concentration that gives 50% inhibition.
